Results on one compound are retold here after PMC10295897, “A Novel MDM2-Binding Chalcone Induces Apoptosis of Oral Squamous Cell Carcinoma” (Biomedicines, 2023).

Like-named read-outs stand apart in the source and are kept apart here. Some results are limits rather than exact numbers.

By IC50 is commonly meant the concentration that inhibits the measured activity by half.

Series [1] relates to Oral Tumor Cells (SCC9, SCC25, SCC4). As to the kind of experiment: MTT assay, average over oral tumor cells. Format: cell-based, human. The procedure:
(§1) The viability of SCC cell lines, HT-29, HCT-116, HEP2G and primary human fibroblast cells was evaluated using the MTT assay as in [26]. Briefly, the cells were grown in duplicates in 96-well plates (5 × 10^3 cells/well) until confluence. Then, the medium was removed, fresh medium was added, and the cells were returned to the incubator in the presence of different compounds. DMSO at the same concentrations was used as a 100% cell viability control. After 48 h, the cells were incubated with 5 mg/mL MTT reagent (3-(4,5-dimethyl-2-thiazolyl)-2,5-diphenyl-2-H-tetrazolium bromide) (Sigma-Aldrich Co., St. Louis, MO, USA) for 3.5 h. After that, formazan crystals were dissolved in MTT solvent solution (DMSO/methanol 1:1 v/v), and the absorbance at 560 nm was evaluated using an EPOCH microplate spectrophotometer (BioTek Instruments, Winooski, VT, USA) with the background absorbance at 670 nm subtracted. Each of the six compounds was tested at six or seven different concentrations, ranging from 0.3 µM to 200 µM in cancer cell lines (SCC-4, SCC-9 and SCC-25) and 0.3 µM to 200 µM in primary normal human gingival fibroblasts. Controls (carboplatin, nutlin 3a) were tested at six or seven different concentrations ranging from 0.05 µM to 1000 µM in cancer cells and normal cells, depending on the compound.
(§2) The data are presented as means ± SD. IC values for the MTT assays were obtained by nonlinear regression using the […] 5.0 program (Intuitive Software for Science, San Diego, CA, USA) from at least three independent experiments. A dose–response (inhibitor) vs. response curve using the least squares method was used to determine the IC50, SD, and R^2 of the data. The selectivity index was calculated as SI = IC50 of the compound in normal oral fibroblast cells/IC50 of the same compound for each cancer cell line (SCC-4, SCC-9, SCC-25, HCT-116, HT29 and HEP2G), and the mean was calculated when indicated.

The test system of series [2] is SCC25 cells. As to the kind of experiment: MTT cell viability assay, SCC25 cells. Format: cell-based, human. The procedure: (§3) Human SCC-4, SCC-9, and SCC-25 cells derived from a human oral tongue SCC (squamous cell carcinoma) were obtained from the ATCC (CRL-1624, CRL-1629, and CRL-1628, respectively) and maintained in 1:1 DMEM/F12 (Dulbecco’s modified Eagle medium and Ham’s F12 medium; Gibco (Thermo Fisher, Waltham, MA, USA)) supplemented with 10% (v/v) FBS (fetal bovine serum; Invitrogen, Thermo Fisher, Waltham, MA, USA) and 400 ng/mL hydrocortisone (Sigma-Aldrich Co., St. Louis, MO, USA). Primary normal human gingival fibroblasts were obtained from the ATCC (PCS-201-018; HGF) and maintained in DMEM supplemented with 10% (v/v) FBS and were used in a maximum of six passages. The cells were grown in a humidified environment containing 5% CO2 at 37 °C. For all biological experiments, the compounds and control nutlin 3a were solubilized in 100% DMSO (all Sigma-Aldrich) to a final concentration of 10 mM. Carboplatin stock was prepared in water (Fauldcarbo®; LibbsFarmacêutica, São Paulo, SP, Brazil) and was used as a standard anticancer compound.
as §1, §2
In general terms: Tetrazolium dyes change colour on reduction, which living cells bring about.

Series [3] can be described thus: Solubility observed during in vitro testing. Format: physicochemical. The note with it: in vitro cytotoxicity testing.
In series [4] the test system is SCC9 cells. As to the kind of experiment: MTT cell viability assay, SCC9 oral cancer cells. It is filed as cell-based, human. The note with it: for IC50: Homo sapiens, SCC-9, 48 h, MTT. How it is done:
as §3, §1, §2
Initially, the six chalcones (1a–f) were submitted to the MTT assay to evaluate their cytotoxicity. The assay was performed using the oral cancer cell line SCC9, and the results were analyzed by a non-linear regression curve to determine the value of the half maximal inhibitory concentration (IC50). As controls, known chemotherapeutic agents were used, namely carboplatin, routinely used in the treatment of oral cancer, and doxorubicin, widely used for other types of cancers.

Series [5] concerns HCT-116 (colon cancer). As to the kind of experiment: MTT cell viability assay, HCT-116. It is filed as cell-based. How it is done:
as §1, with “Each of the six compounds was tested at six or seven different concentrations, ranging from 0.3 µM to 200 µM in cancer cell lines (SCC-4, SCC-9 and SCC-25) and 0.3 µM to 200 µM in primary normal human gingival fibroblasts. Controls (carboplatin, nutlin 3a) were tested at six or seven different concentrations ranging from 0.05 µM to 1000 µM in cancer cells and normal cells, depending on the compound.” left out
(§4) The data are presented as means ± SD. […] The selectivity index was calculated as SI = IC50 of the compound in normal oral fibroblast cells/IC50 of the same compound for each cancer cell line (SCC-4, SCC-9, SCC-25, HCT-116, HT29 and HEP2G), and the mean was calculated when indicated.

Series [6] can be described thus: Hemolysis assay. The conditions noted are these: human erythrocytes; vs Triton X-100 = 100%; 300 µM (method) / 500 µM (Figure 2). Format: cell-based. The procedure: To determine the surfactant power of substances in biological membranes, a hemolysis assay was performed using human blood approved by the Research Ethics Committee of Universidade Federal Fluminense (CAAE: 43134721.4.0000.5626). Erythrocytes were collected by centrifugation at 1500 rpm for 15 min, washed with PBS (phosphate-buffered saline) supplemented with 10 mM glucose, and counted in an automatic cell counter (Thermo Fisher, Waltham, MA, USA). Erythrocytes were then plated in 96-well plates at a concentration of 4 × 10^8 cells/well in triplicates, and 10 µL of compounds was added at a final concentration of 300 µM in PBS with glucose (final volume 100 µL). In total, 10 µL of PBS was used as a negative control and 10 µL of PBS with 0.1% Triton X-100 as a positive control. Data reading was performed with EPOCH (BioTek Instruments, Winooski, VT, USA) at an absorbance of 540 nm, and the statistical data were generated using the […] Prism 5.0 program (Intuitive Software for Science, San Diego, CA, USA).

Series [7] deals with HEP2G (hepatocarcinoma). As to the kind of experiment: MTT cell viability assay, HEP2G. It is filed as cell-based. The note with it: 48 h. How it is done: as §1, with “Each of the six compounds was tested at six or seven different concentrations, ranging from 0.3 µM to 200 µM in cancer cell lines (SCC-4, SCC-9 and SCC-25) and 0.3 µM to 200 µM in primary normal human gingival fibroblasts. Controls (carboplatin, nutlin 3a) were tested at six or seven different concentrations ranging from 0.05 µM to 1000 µM in cancer cells and normal cells, depending on the compound.” left out
as §4

Series [8] concerns HT29 (adenocarcinoma). As to the kind of experiment: MTT cell viability assay, HT29. Format: cell-based. The procedure:
as §1, §2

Series [9] deals with SCC9 cells. Briefly: Cell cycle and SubG1 analysis (PI flow cytometry). It is filed as cell-based, human. The conditions noted are these: SCC9, 2 × IC50, 48 h, PI staining. How it is done: To evaluate the action of compound 1f on the cell cycle and DNA fragmentation, SCC9 cell line cells were plated in a 6-well plate (5 × 10^5 cells/well). After 48 h of treatment, the cells were trypsinized and stained with propidium iodide (75 µM) in the presence of NP-40. The DNA content was analyzed by collecting 10,000 events using a FACScalibur flow cytometer. The data were analyzed using CellQuest (BD Biosciences, Franklin Lakes, NJ, USA) and FlowJo (Tree Star Inc., Ashland, OR, USA) software as in [34].
A general note: Flow cytometry measures light scatter and fluorescence of single cells or particles in a stream.

For `Cc1cccc(C)c1-n1cc(/C=C/C(=O)c2ccccc2N)nn1` [1f, (E)-1-(2-Aminophenyl)-3-(1-(2,6-dimethylphenyl)-1H-1,2,3-triazol-4-yl)prop-2-en-1-one], the IC50 in series [1] (Homo sapiens, mean of SCC9, SCC25, SCC4) stood at 4.54 µM; in series [2] (Homo sapiens, SCC-25, 48 h, MTT) it was 5.03 µM; in series [4] (48 h, read-out: SCC9 IC50), 3.87 µM; in series [4] (SCC9, 48 h, read-out: IC50), 3.87 µM; in series [5] (Homo sapiens, HCT-116, 48 h, MTT), 3.99 µM; in series [7], 39.4 µM. The midpoint of inhibition in [8] (Homo sapiens, HT-29, 48 h, MTT), the IC50, lay at 3.92 µM. Moreover, in series [1] (IC50 of normal primary fibroblasts / average IC50 of tumor cells), the “Average S.I.” value was 6.51. Besides, in [2] (selective index = IC50 HGF / IC50 SCC25), the “SCC25 S.I.” value was found to be 5.88. Besides, in series [3], the “solubility (in words)” value is recorded as “highly soluble”. For the same compound, the “SCC9 S.I.” value in [4] (selective index = IC50 HGF / IC50 SCC9) turned out to be 7.63. For the same compound, in [5] (IC50 HGF / IC50 HCT-116), the “HCT-116 S.I.” value was found to be 7.41. Besides, the hemolysis at 300 µM in [6] was less than 2%. In series [8] (IC50 HGF / IC50 HT29), the “HT29 S.I.” value amounted to 7.55. For the same compound, the “cells in G2/M phase” value in [9] was determined as 44.0%. Further, the “fragmentation of DNA (Sub-G1 DNA-content)” value in [9] came to 23.3%.
